Entries after “also recorded” stand apart in the source; their conditions may differ.
B1: vitronectin: extracellular matrix protein tested as plate coating for differentiation (protein, UniProt P04004 20-478, looked up)
Vitronectin: DQESCKGRCTEGFNVDKKCQCDELCSYYQSCCTDYTAECKPQVTRGDVFTMPEDEYTVYDDGEEKNNATVHEQVGGPSLTSDLQAQSKGNPEQTPVLKPEEEAPAPEVGASKPEGIDSRPETLHPGRPQPPAEEELCSGKPFDAFTDLKNGSLFAFRGQYCYELDEKAVRPGYPKLIRDVWGIEGPIDAAFTRINCQGKTYLFKGSQYWRFEDGVLDPDYPRNISDGFDGIPDNVDAALALPAHSYSGRERVYFFKGKQYWEYQFQHQPSQEECEGSSLSAVFEHFAMMQRDSWEDIFELLFWGRTSAGTRQPQFISRDWHGVPGQVDAAMAGRIYISGMAPRPSLAKKQRFRHRNRKGYRSQRGHSRGRNQNSRRPSRATWLSLFSSEESNLGANNYDDYRMDWLVPATCEPIQSVFFFSGDKYYRVNLRTRRVDTVDPPYPRSIAQYWLGCPAPGHL

Experiments:
stem cells = assay: Adhesion of cells to plates coated with different extracellular matrix proteins during differentiation; type: cell-based, human; details: for adherence of seeding stem cells to the ECM to start differentiation: FIG. 11; for attachment of cells to the plate in early differentiation stages: stage 1 and 2, ECM protein used alone; for time at which cells came off the plate: stage/day of protocol (s = stage, d = day)
Procedure: (§1) Experiment goal: test if our SC-β cell differentiation method works with different extracellular matrix proteins. Stem cells were propagated on Matrigel as normal. Cells were plated on the different ECMs when seeding the differentiations. For the combinations of laminin 111 and collagen IV, the total protein concentration was kept the same. The ratio of these was changed from 3:1, 1:1, and 1:3. Some of the ECMs induced the cells to form clusters on the plate in stage 6, so some clusters were scrapped off instead of aggregating them for comparison. The differentiation protocol utilized was previously published (Hogrebe et al Nature Biotechnology 2020; Hogrebe et al Nature Protocols 2021; and WO 2019/222487) and modified to include different ECM proteins.

[1] = test system: human pluripotent stem cells; assay: SC-β cell differentiation on different extracellular matrix proteins; type: cell-based; details: for outcome of differentiation of stem cells to SC-β cells: cells plated on the ECM when seeding the differentiation
Procedure: as §1

Molecule | adherence of seeding stem cells to the ECM to start differentiation (stem cells) | attachment of cells to the plate in early differentiation stages (stem cells) | attachment of cells to the plate in early differentiation stages (stem cells; listed as collagen I) | time at which cells came off the plate (stem cells) | adhesion of endocrine cells to the plate (stem cells; stage 6) | outcome of differentiation of stem cells to SC-β cells [1] | cell types obtained ([1]; differentiations done on vitronectin only, FIG. 12)
collagen 1: extracellular matrix protein tested as plate coating for differentiation | weren't as adhesive | detached completely | monolayer of stem cells detaching from the plate | came off on s2d1 | – | – | –
collagen IV: extracellular matrix protein tested as plate coating, alone or combined with laminin 111 | – | detached completely; also recorded: monolayer of stem cells detaching from the plate | – | started coming off on s1d3 | makes the endocrine cells stick to the plate | – | –
fibronectin | do not effectively adhere | – | – | – | – | failed | –
B1 | do effectively adhere | – | – | – | – | failed | a lot of off-target cell types and no endocrine cells

— patent publication US20230340417A1, “DEFINED MATRIX FOR THE DIFFERENTIATION OF ISLETS” (Washington University, priority 2022, published 2023)
